Source: ChEMBL document CHEMBL5653631, “A Potent and Selective ULK1 Inhibitor Suppresses Autophagy and Sensitizes Cancer Cells to Nutrient Stress” (iScience, 2018)
Blank lines part the entries; values can stand above or below the molecule they belong to.

How the values were obtained:
[1] = target: T1, Tyrosine-protein kinase TXK (Homo sapiens) (UniProt P42681); experiment: Inhibition of human recombinant TXK at 500 nM in presence of ATP by radiometric assay relative to control
T1 sequence (whole entry): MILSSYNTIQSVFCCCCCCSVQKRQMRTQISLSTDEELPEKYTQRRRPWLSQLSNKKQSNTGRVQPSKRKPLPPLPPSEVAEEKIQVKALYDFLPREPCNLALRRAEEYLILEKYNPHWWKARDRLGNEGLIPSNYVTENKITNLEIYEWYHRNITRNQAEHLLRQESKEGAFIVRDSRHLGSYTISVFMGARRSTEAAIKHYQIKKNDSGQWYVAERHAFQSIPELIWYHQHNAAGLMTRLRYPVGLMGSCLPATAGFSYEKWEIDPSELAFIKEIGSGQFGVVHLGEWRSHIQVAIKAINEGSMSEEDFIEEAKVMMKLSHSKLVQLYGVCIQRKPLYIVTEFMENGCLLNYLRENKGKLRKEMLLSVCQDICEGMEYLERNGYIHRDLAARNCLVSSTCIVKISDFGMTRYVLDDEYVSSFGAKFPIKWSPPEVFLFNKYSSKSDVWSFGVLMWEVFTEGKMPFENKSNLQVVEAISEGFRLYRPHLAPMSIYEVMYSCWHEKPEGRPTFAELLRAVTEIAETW

[2] = target: T2, Testis-specific serine/threonine-protein kinase 1 (Homo sapiens) (UniProt Q9BXA7); experiment: Inhibition of human recombinant TSSK1 at 500 nM related to control ULK1
T2 sequence (whole entry): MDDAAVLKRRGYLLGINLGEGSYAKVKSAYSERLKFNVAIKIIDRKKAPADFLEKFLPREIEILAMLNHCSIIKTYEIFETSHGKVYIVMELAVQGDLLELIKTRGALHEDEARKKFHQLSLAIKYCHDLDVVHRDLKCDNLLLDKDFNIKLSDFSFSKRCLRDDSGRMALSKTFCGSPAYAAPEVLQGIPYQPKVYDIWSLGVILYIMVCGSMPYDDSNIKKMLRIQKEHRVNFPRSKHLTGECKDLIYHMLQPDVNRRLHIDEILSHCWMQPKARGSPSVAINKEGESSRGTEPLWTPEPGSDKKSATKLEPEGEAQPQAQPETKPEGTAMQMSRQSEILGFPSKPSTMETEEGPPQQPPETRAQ

[3] = target: T3, Serine/threonine-protein kinase TAO3 (Homo sapiens) (UniProt Q9H2K8); experiment: Inhibition of human recombinant TAO3 at 15 nM in presence of ATP by radiometric assay relative to control
T3 sequence (whole entry): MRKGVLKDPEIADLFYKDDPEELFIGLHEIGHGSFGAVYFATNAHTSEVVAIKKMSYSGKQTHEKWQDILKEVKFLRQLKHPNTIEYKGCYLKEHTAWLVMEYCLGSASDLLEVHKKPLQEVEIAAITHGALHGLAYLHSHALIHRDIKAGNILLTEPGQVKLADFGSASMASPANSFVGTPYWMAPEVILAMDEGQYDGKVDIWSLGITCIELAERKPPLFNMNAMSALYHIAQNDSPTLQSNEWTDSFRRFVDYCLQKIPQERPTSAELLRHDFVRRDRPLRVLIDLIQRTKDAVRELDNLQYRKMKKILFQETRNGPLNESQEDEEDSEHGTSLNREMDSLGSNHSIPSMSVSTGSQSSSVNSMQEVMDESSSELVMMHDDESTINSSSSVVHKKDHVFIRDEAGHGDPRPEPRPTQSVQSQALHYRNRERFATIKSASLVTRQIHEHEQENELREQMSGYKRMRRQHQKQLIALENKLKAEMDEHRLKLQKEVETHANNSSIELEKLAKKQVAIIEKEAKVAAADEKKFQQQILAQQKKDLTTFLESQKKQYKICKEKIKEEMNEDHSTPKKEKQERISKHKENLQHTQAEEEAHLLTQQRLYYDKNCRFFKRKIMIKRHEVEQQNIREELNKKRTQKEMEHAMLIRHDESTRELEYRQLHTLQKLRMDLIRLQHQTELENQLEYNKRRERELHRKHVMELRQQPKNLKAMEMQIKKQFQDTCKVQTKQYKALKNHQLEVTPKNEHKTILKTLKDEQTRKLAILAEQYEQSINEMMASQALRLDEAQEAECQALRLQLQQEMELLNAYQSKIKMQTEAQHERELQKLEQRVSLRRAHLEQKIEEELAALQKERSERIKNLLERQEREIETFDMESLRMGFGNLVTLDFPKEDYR

[4] = target: Receptor tyrosine-protein kinase erbB-2 (Homo sapiens) (UniProt P04626); experiment: Inhibition of human recombinant ErbB2 at 15 nM in presence of ATP by radiometric assay relative to control
[5] = target: T1, Tyrosine-protein kinase TXK (Homo sapiens); experiment: Inhibition of human recombinant TXK at 15 nM in presence of ATP by radiometric assay relative to control
[6] = target: T4, Mitogen-activated protein kinase 13 (Homo sapiens) (UniProt O15264); experiment: Inhibition of human recombinant p38delta at 40 nM related to control ULK1
T4 sequence (whole entry): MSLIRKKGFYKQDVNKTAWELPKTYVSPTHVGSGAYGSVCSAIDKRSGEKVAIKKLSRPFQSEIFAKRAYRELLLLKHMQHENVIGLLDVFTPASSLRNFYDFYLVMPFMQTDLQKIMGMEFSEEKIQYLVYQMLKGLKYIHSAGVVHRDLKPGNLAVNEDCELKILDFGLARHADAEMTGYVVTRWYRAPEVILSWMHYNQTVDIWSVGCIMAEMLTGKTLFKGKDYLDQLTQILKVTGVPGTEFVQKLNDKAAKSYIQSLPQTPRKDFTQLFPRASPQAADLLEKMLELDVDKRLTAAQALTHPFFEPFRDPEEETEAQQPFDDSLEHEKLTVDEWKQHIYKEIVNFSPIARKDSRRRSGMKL

[7] = target: Epidermal growth factor receptor (Homo sapiens) (UniProt P00533); experiment: Inhibition of human recombinant EGFR at 40 nM related to control ULK1
Chain of Epidermal growth factor receptor (Homo sapiens) (P00533 whole entry): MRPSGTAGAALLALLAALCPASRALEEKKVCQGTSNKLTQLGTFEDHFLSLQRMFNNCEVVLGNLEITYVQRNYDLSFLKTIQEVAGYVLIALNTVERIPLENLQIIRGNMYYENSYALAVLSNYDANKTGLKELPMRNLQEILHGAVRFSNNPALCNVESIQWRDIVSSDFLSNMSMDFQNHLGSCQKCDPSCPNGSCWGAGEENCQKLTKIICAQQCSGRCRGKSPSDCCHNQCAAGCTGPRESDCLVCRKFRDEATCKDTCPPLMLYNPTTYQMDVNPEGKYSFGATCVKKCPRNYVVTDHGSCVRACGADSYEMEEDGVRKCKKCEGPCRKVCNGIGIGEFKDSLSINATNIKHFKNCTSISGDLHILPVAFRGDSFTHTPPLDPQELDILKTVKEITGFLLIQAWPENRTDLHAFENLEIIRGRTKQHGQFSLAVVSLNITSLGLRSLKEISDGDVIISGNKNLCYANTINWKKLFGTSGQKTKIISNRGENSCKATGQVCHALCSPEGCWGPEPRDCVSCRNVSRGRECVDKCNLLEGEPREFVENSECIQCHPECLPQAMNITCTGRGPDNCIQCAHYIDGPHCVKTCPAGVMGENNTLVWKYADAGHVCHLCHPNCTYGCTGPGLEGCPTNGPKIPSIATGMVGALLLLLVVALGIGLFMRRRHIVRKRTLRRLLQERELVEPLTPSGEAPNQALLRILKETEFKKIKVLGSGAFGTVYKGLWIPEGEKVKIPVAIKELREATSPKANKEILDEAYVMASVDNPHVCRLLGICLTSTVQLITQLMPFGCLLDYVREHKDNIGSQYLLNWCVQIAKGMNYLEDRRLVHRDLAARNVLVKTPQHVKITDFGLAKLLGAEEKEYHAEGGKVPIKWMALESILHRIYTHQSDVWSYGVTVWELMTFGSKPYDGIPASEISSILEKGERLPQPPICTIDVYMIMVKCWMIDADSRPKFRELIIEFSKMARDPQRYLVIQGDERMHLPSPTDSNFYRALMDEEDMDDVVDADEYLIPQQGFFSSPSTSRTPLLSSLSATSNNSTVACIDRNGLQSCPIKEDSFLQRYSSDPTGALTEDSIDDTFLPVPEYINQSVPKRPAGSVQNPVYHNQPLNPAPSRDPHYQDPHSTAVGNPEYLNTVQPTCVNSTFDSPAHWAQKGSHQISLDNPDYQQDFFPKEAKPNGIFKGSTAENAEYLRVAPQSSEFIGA

Chain of Receptor tyrosine-protein kinase erbB-2 (Homo sapiens) (P04626 whole entry): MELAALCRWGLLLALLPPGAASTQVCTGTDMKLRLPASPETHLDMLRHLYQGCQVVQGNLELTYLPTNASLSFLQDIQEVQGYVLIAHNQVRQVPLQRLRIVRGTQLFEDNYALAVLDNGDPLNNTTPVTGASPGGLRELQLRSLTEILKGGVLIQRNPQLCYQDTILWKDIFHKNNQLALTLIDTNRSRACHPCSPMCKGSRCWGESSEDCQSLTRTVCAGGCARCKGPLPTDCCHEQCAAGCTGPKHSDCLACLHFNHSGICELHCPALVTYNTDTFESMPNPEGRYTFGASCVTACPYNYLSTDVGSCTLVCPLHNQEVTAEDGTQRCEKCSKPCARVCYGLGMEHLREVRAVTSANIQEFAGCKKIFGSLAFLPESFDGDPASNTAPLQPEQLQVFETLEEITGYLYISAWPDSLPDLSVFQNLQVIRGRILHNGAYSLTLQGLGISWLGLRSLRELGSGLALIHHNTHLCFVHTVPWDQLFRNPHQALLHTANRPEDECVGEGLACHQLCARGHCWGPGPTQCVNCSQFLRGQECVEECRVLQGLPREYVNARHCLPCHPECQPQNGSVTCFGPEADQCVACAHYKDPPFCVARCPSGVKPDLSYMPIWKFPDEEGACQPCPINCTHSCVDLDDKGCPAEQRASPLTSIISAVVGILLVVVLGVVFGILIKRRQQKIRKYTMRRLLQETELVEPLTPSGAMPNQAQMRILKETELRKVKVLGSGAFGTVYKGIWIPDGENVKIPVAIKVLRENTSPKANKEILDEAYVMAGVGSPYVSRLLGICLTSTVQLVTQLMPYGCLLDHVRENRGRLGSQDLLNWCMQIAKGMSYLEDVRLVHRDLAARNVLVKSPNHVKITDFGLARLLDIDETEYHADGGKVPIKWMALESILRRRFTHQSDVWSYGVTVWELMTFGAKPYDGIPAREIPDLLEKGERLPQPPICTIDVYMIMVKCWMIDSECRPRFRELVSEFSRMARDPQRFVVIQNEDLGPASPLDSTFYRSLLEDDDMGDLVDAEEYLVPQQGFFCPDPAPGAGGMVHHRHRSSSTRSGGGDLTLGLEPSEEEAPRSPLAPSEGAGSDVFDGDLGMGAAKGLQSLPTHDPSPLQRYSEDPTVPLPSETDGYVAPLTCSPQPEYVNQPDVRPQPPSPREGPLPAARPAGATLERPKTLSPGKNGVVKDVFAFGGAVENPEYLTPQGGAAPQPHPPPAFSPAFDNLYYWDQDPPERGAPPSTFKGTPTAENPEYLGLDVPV

inhibition [1]: 17%
fold change (FC) [2]: 0
SMILES: CNC(=O)c1ccccc1Oc1nc(Nc2cc(OC)c(OC)c(OC)c2)ncc1Br

inhibition [3]: 1%
inhibition [4]: 0%
inhibition [5]: 59%
SMILES: CC(C)[C@H](NC(=O)c1cc(-c2cnn3cc(-c4ccc(OCCN5CCCCC5)cc4)cnc23)cs1)C(F)(F)F

fold change (FC) [6]: 0.16
fold change (FC) [7]: 0
SMILES: O=C(N[C@@H](C1CC1)C(F)(F)F)c1cc(-c2cnn3cc(-c4ccc(F)cc4)cnc23)cs1
